Experimental findings from patent publication US7750031B2, “Caffeic acid derivative and composition containing the same” (Thefaceshop Korea Co., Ltd., priority 2007, dated 2010) are described below.

This data set can be described thus: solubility measurement in purified water and ethanol. To be noted: for density up to which dissolved: 25° C.

For the compound `O=C(O)/C=C/c1ccc(O)c(O)c1` [caffeic acid], the solubility result reads like this: (ethanol (25° C.), density 1 mg/mL) “dissolved”; (ethanol (25° C.), density 10 mg/mL) “dissolved”; (ethanol (25° C.), density 100 mg/mL) “not dissolved”; (purified water (25° C.), density 1 mg/mL) “not dissolved”; (purified water (25° C.), density 10 mg/mL) “not dissolved”; (purified water (25° C.), density 100 mg/mL) “not dissolved”. The “density up to which dissolved” value by setting is: (ethanol) not below 10 mg/mL; (purified water) “not dissolved”.
